# Assays:
# [1] = test system: superoxide radicals (O2−); experiment: Superoxide radical scavenging: xanthine/xanthine oxidase system, cytochrome C reduction, absorption at 550 nm; assay type: biochemical; settings: xanthine 50 μM, cytochrome C 10 μM, phosphate buffer pH 7.8
# Method: Detection of high free radical scavenging potency of hydrophilic fullerene derivatives. […] Therefore, the detected optical absorption intensity of the reduced cytochrome (Fe^+2) C can be correlated to the quantity of superoxide radicals reacted with cytochrome (Fe^+3) C. Scavenging of superoxide radicals by hydrophilic fullerene derivatives in the bio-medium inhibits the formation of reduced cytochrome (Fe+2) C and thus reduce the optical absorption at 550 nm.
# In one experiment, xanthine (50 μM) was added to a physiological medium (3 ml) containing cytochrome C (10 μM), ethylenediaminetetraacetic acid (EDTA) (10 mM) and a phosphate buffer (50 mM) at pH 7.8. The mixture was then added xanthine oxidase in quantity enough to induce 0.025 unit of optical absorption at 550 nm per 5 min (Mc Cord, et al. J. Biol. Chem. 1969, 244, 6049.). Subsequently, 1,3-dimethyl-N-succinamitofulleropyrrolidine-1,3-dicarboxylic acid, C60[C(CH3)CO2H]2NCO—CH2CH2CO2H, prepared in Example 12, in a concentration of 0, 5.0, 10.0, 25.0, 50, and 100 μM was added in separated runs while the absorption intensity of the reduced cytochrome C was recorded. A rapid decrease of reduced cytochrome C to roughly 50% and 20% of the control value was obtained with the dose of 1,3-dimethyl-N-succinamitofulleropyrrolidine-1,3-dicarboxylic acid as 25 and 100 μM, respectively.
# [2] = test system: Fibrosarcoma tumor cells (CCRC 60037); experiment: Growth inhibition of fibrosarcoma tumor cells upon photo-irradiation, MTT assay; assay type: cell-based; settings: compound 2.5 μM for 24 h; fluorescence light (27 W) photo-irradiation more than 20 min; then 48 h at 37° C.
# Method: The growth inhibitory effect of 1,3-dimethyl-N-succinamitofulleropyrrolidine-1,3-dicarboxylic acid, C60[C(CH3)CO2H]2NCO—CH2CH2CO2H, which was prepared as described in Example 12, on fibrosarcoma tumor cells upon photo-irradiation was studied in vitro. Fibrosarcoma tumor cells (0.5 ml, 4×10^4/ml, CCRC 60037) were grown in the MEM medium in a 24-well plate for a period of 24 h. It was treated by 1,3-dimethyl-N-succinamitofulleropyrrolidine-1,3-dicarboxylic acid in a concentration of 0.0, 2.5, 5.0, 7.5, and 10.0 μM for a period of 24 hours. The MEM medium was removed and replaced by the fresh medium (1.0 ml). The cell-containing plates were exposed to a fluorescence light source (27 W) in a distance of 5-6 cm for a period of 10, 20, 40, and 60 min. The plates were then kept in incubator at 37° C. a period of 48 h. Measurement of cell viability in each plate was performed by the MTT assay using optical absorption at 540 nm.
substance,measurement,setting,value
"1,3-dimethyl-N-succinamitofulleropyrrolidine-1,3-dicarboxylic acid","reduced cytochrome C, % of the control value",[1]; compound 25 μM,roughly 50%
same,"reduced cytochrome C, % of the control value",[1]; compound 100 μM,~20%
same,"tumor cell count (cell viability, MTT, absorption at 540 nm)",[2],rapid decrease in the tumor cell count

# Source: US6949660B2, “Chiral (1pyrrolino) fullerene derivatives” (Seth Nanotechnology, Incorporated, priority 1995, dated 2005)
